Results reported in ChEMBL document CHEMBL4699595, “Ganoweberianones A and B, Antimalarial Lanostane Dimers from Cultivated Fruiting Bodies of the Basidiomycete Ganoderma weberianum” (J Nat Prod, 2020).
pIC50: −log10 of the molar value. Calls of active or inactive are those of the source. The rule behind the calls is not given here.

Legend:
Plasmodium falciparum = assay: Antimalarial activity against multi drug-resistant Plasmodium falciparum K1 infected in human erythrocytes assessed as reduction in parasite growth preincubated for 24 hrs followed by [3H]hypoxanthine addition and measured after 18 hrs by scintillation counting method; type: functional, organism-based; conditions: K1, Erythrocyte
[1] = tested on: Mycobacterium tuberculosis; assay: Antimycobacterial activity against Mycobacterium tuberculosis H37Ra ATCC 25177; type: functional, organism-based
Vero = assay: Cytotoxicity against African green monkey Vero cells assessed as reduction in cell viability by tryphan blue exclusion method; type: cell-based; conditions: Chlorocebus sabaeus
[2] = Selectivity index, ratio of IC50 for cytotoxicity against African green monkey Vero cells to IC50 for antimalarial activity against multi drug-resistant Plasmodium falciparum K1 infected in human erythrocytes; type: toxicity, cell-based; conditions: read-out: Ratio IC50

Structure (SMILES) | pIC50 (Plasmodium falciparum) | Activity [1] | pIC50 (Vero) | selectivity ratio [2]
C[C@H](CC(=O)C[C@H](C)C(=O)O)[C@H]1C[C@@H](O)[C@@]2(C)C3=C(C(=O)[C@@H](O)[C@]12C)[C@@]1(C)CCC(=O)C(C)(C)[C@@H]1CC3=O | ≤ 4.77 | inactive | ≤ 4.06 | –
C[C@H](CC(=O)C[C@H](C)C(=O)O)[C@H]1C[C@@H](O)[C@@]2(C)C3=C(C(=O)C[C@]12C)[C@@]1(C)CCC(=O)[C@@](C)(CO)[C@@H]1CC3=O | ≤ 4.77 | inactive | ≤ 4.06 | –
C[C@H](CC[C@H](OC(=O)[C@@H](C)CC(=O)C[C@@H](C)[C@H]1C[C@@H](O)[C@@]2(C)C3=C(C(=O)C[C@]12C)[C@@]1(C)CC[C@@H](O)C(C)(C)[C@@H]1CC3=O)[C@](C)(O)CO)[C@H]1CC[C@@]2(C)C3=CC[C@H]4C(C)(C)C(=O)CC[C@]4(C)C3=CC[C@]12C | 6.34 | inactive | 5.00 | 2.2
C[C@H](CC(=O)C[C@H](C)C(=O)O)[C@H]1C[C@@H](O)[C@@]2(C)C3=C(C(=O)C[C@]12C)[C@@]1(C)CC[C@@H](O)C(C)(C)[C@@H]1CC3=O | ≤ 4.77 | inactive | ≤ 4.06 | –
C[C@H](CC(=O)C[C@H](C)C(=O)O)[C@H]1C[C@@H](O)[C@@]2(C)C3=C(C(=O)C[C@]12C)[C@@]1(C)CCC(=O)C(C)(C)[C@@H]1CC3=O | ≤ 4.77 | inactive | ≤ 4.06 | –
C[C@H](CC[C@H](OC(=O)[C@@H](C)CC(=O)C[C@@H](C)[C@H]1C[C@@H](O)[C@@]2(C)C3=C(C(=O)C[C@]12C)[C@@]1(C)CCC(=O)C(C)(C)[C@@H]1CC3=O)[C@](C)(O)CO)[C@H]1CC[C@@]2(C)C3=CC[C@H]4C(C)(C)C(=O)CC[C@]4(C)C3=CC[C@]12C | 7.30 | inactive | 6.68 | 4.2
CC(=O)O[C@@H]1C(=O)C2=C(C(=O)C[C@H]3C(C)(C)C(=O)CC[C@]23C)[C@]2(C)[C@H](O)C[C@H]([C@H](C)CC(=O)C[C@H](C)C(=O)O)[C@@]12C | ≤ 4.77 | inactive | ≤ 4.06 | –
